Experiments:
293T cells [1] = assay: Western blot of 293T cells treated with inhibitors; format: cell-based, human
293T cells [2] = settings: 30 min; cited from earlier work

Row | Structure (SMILES) | phosphorylation of AKT (pAKT) (293T cells [1]; 3 and 16 h of treatment) | phosphorylation of S6 (pS6 levels) (293T cells [1]; 3 and 16 h of treatment) | phosphorylation of S6 (293T cells [1]; 3 h time point) | phosphorylation of S6 (293T cells [1]; 16 h time point) | S6 phosphorylation (293T cells [2])
1 | COc1ccc(-c2ccc3c(N4CCOC[C@@H]4C)nc(N4CCOC[C@@H]4C)nc3n2)cc1CO [AZD8055] | decrease in pAKT at T308 and S473 | significant decrease in pS6 levels at both the S235 and S240 sites | – | – | –
2 | CCc1cncnc1N1CCN(Cc2nc3ccc(C(F)(F)F)cc3[nH]2)CC1 [PF-4708671] | no effect on the phosphorylation of AKT | – | modest decrease in phosphorylation of S6 | returned to near basal levels | significant reduction in S6 phosphorylation

Reference: PMC4289024 (Journal of Medicinal Chemistry, 2014)
